Test results: PubChem BioAssay (NCI)
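48-hour exposure; five concentrations; linearly interpolated endpoints. TGI is the concentration that stops growth completely.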

Columns and labels:
Experiment in all cases: NCI-60 cell line screen, 48 h
[1] = tested on: MALME-3M melanoma
[2] = tested on: KM12 colon
[3] = tested on: PC-3 prostate
[4] = tested on: OVCAR-8 ovarian
[5] = tested on: COLO 205 colon
[6] = tested on: OVCAR-4 ovarian
[7] = tested on: CCRF-CEM leukemia
[8] = tested on: IGROV1 ovarian
[9] = tested on: NCI-H460 lung
[10] = tested on: A498 renal
[11] = tested on: 786-0 renal
[12] = tested on: SK-OV-3 ovarian
[13] = tested on: U251 CNS
[14] = tested on: MDA-MB-435
[15] = tested on: SK-MEL-5 melanoma
[16] = tested on: MDA-MB-231 breast
[17] = tested on: SF-539 CNS
[18] = tested on: NCI-H522 lung
[19] = tested on: SK-MEL-28 melanoma
[20] = tested on: SK-MEL-2 melanoma
[21] = tested on: HT29 colon
[22] = tested on: M14 melanoma
[23] = tested on: UACC-62 melanoma
[24] = tested on: NCI/ADR-RES ovarian
[25] = tested on: SF-295 CNS
[26] = tested on: DU-145 prostate
[27] = tested on: HL-60(TB) leukemia
[28] = tested on: UACC-257 melanoma
[29] = tested on: HOP-92 NSCLC
[30] = tested on: MDA-N
[31] = tested on: BT-549 breast
[32] = tested on: TK-10 renal
[33] = tested on: LOX IMVI melanoma
[34] = tested on: HCT-116 colon
[35] = tested on: NCI-H226 lung
[36] = tested on: SW-620 colon
[37] = tested on: SNB-75 CNS
[38] = tested on: ACHN renal
[39] = tested on: CAKI-1 renal
[40] = tested on: SF-268 CNS
[41] = tested on: T-47D breast
[42] = tested on: UO-31 renal
[43] = tested on: SN12C renal
[44] = tested on: A549 NSCLC
[45] = tested on: MOLT-4 leukemia
[46] = tested on: HCT-15 colon
[47] = tested on: SNB-19 CNS
[48] = tested on: OVCAR-3 ovarian
[49] = tested on: OVCAR-5 ovarian
[50] = tested on: RXF 393 renal
[51] = tested on: NCI-H23 lung
[52] = tested on: HS 578T breast
[53] = tested on: SR leukemia
[54] = tested on: K-562 leukemia
[55] = tested on: EKVX NSCLC
[56] = tested on: HOP-62 NSCLC
[57] = tested on: MCF7 breast
[58] = tested on: HCC-2998 colon
[59] = tested on: RPMI-8226 leukemia

Measured: TGI

Cc1ccc(Sc2ccccc2C23OC(C)(C4C(=O)N(c5ccccc5)C(=O)C42)N(C)C3=O)cc1 (configuration not stated)
> 100 µM: [1] | [2] | [3] | [4] | [5] | [6] | [7] | [8] | [9] | [10] | [11] | [12] | [13] | [14] | [15] | [16] | [17] | [18] | [19] | [20] | [21] | [22] | [23] | [24] | [25] | [26] | [27] | [28] | [29] | [30] | [31] | [32] | [33] | [34] | [35] | [36] | [37] | [38] | [39] | [40] | [41] | [42] | [43] | [44] | [45] | [46] | [47] | [48] | [49] | [50] | [51] | [52] | [53] | [54] | [55]

C=C(Cl)/C(=C\Cl)CCC(Cl)C(C)C (configuration not stated) (tested in a mixture with another compound)
29.3 µM: [31]
47.9 µM: [35]
27.1 µM: [20]
16.8 µM: [18]
31.9 µM: [26] | [52]
32.1 µM: [42]
7.5 µM: [36]
29.8 µM: [34]
84.4 µM: [24]
31.2 µM: [6]
36.8 µM: [21]
> 100 µM: [7] | [27] | [44] | [45] | [53] | [54]
33.3 µM: [55]
28.2 µM: [51]
28.4 µM: [8]
27.6 µM: [2] | [15]
37.1 µM: [40]
30.1 µM: [13] | [48]
30.8 µM: [16]
30.4 µM: [30] | [38]
32.9 µM: [9]
27.2 µM: [28]
28.6 µM: [29]
31.3 µM: [43]
31.5 µM: [47]
28.8 µM: [14]
33.9 µM: [32]
34.6 µM: [10]
54.6 µM: [5]
32.5 µM: [37]
32.2 µM: [17] | [39]
29.2 µM: [1]
39 µM: [3]
32.7 µM: [22] | [58]
32.6 µM: [56]
41.2 µM: [25]
3.67 µM: [33]
44.5 µM: [12]
29.5 µM: [11]
23.6 µM: [50]
25.3 µM: [23]
26.9 µM: [57]
34.8 µM: [19] | [49]

N#Cc1c(Cl)cc(C#N)n2c1nc1ccccc12
30.3 µM: [49]
39.5 µM: [55]
7.08 µM: [11]
71 µM: [35]
51.3 µM: [12]
16.8 µM: [29]
10.7 µM: [48]
44.1 µM: [56]
40.9 µM: [58]
38.4 µM: [23]
41.3 µM: [26]
38.6 µM: [43]
26.5 µM: [19]
16.7 µM: [39]
18.5 µM: [1]
42.4 µM: [24]
29.3 µM: [15]
15.3 µM: [5]
21.4 µM: [21]
> 84.7 µM: [47]
19 µM: [42]
5.69 µM: [18]
83.7 µM: [52]
22.2 µM: [22] | [44]
33 µM: [20]
24.9 µM: [57]
21.2 µM: [46]
28.3 µM: [8]
21 µM: [4]
22.7 µM: [30]
32.6 µM: [3]
17.2 µM: [59]
5.4 µM: [45]
23.2 µM: [2]
3.03 µM: [27]
30.1 µM: [25]
18.4 µM: [31]
19.1 µM: [17]
12.8 µM: [34]
29.7 µM: [28]
26.4 µM: [32]
41.9 µM: [6]
7.02 µM: [33]
9.1 µM: [36]
35.4 µM: [9]
49.9 µM: [10]
11.1 µM: [41]
28.7 µM: [38] | [50]
38.7 µM: [37]
26.8 µM: [51]
36 µM: [13]
26.2 µM: [14]
21.1 µM: [54]
13.6 µM: [40]
24 µM: [16]

O=C(Sc1c(-c2ccccc2)c(=O)n(-c2ccccc2)c(=S)n1-c1ccccc1)c1ccccc1
88.2 µM: [37]
71.9 µM: [29]
> 100 µM: [1] | [2] | [3] | [4] | [5] | [6] | [8] | [9] | [11] | [12] | [13] | [56] | [14] | [15] | [18] | [19] | [20] | [21] | [22] | [23] | [24] | [25] | [26] | [27] | [28] | [30] | [31] | [32] | [33] | [34] | [35] | [36] | [38] | [59] | [39] | [40] | [41] | [42] | [43] | [44] | [46] | [47] | [48] | [49] | [51] | [52] | [53] | [54] | [57] | [55]
76.3 µM: [7]
73.3 µM: [45]

COc1cc(OCc2ccccc2)c2c(CCC(=O)O)cc(=O)oc2c1 (tested in a mixture with another compound)
61.7 µM: [57]
80.6 µM: [10]
99.9 µM: [19]
> 100 µM: [1] | [2] | [3] | [4] | [5] | [6] | [7] | [8] | [11] | [12] | [13] | [14] | [15] | [16] | [17] | [18] | [20] | [21] | [22] | [23] | [24] | [26] | [28] | [29] | [30] | [31] | [33] | [34] | [35] | [36] | [37] | [38] | [59] | [39] | [40] | [42] | [44] | [46] | [47] | [48] | [49] | [51] | [52] | [53] | [54] | [55] | [58]
96.6 µM: [32]
90.4 µM: [45]
93.7 µM: [27]

CC(C)(C)[Si](C)(C)OCC1OC(n2cnc3c(=O)[nH]cnc32)CC1O (configuration not stated)
> 100 µM: [1] | [2] | [3] | [4] | [5] | [6] | [7] | [8] | [9] | [10] | [11] | [12] | [13] | [56] | [14] | [15] | [16] | [17] | [18] | [19] | [20] | [21] | [22] | [23] | [24] | [25] | [26] | [27] | [28] | [29] | [30] | [32] | [33] | [34] | [35] | [36] | [37] | [38] | [59] | [39] | [40] | [41] | [42] | [43] | [44] | [45] | [46] | [47] | [48] | [49] | [50] | [51] | [52] | [53] | [54] | [57] | [55] | [58]

Cc1[nH]c(C)c(CN(C)C)c1CN(C)C
> 100 µM: [1] | [2] | [3] | [4] | [5] | [6] | [7] | [8] | [9] | [10] | [11] | [12] | [13] | [56] | [14] | [15] | [16] | [17] | [18] | [19] | [20] | [21] | [22] | [23] | [24] | [25] | [26] | [28] | [29] | [30] | [31] | [32] | [33] | [34] | [35] | [36] | [38] | [59] | [39] | [40] | [41] | [42] | [43] | [44] | [46] | [47] | [48] | [49] | [50] | [51] | [52] | [54] | [57] | [55] | [58]
